Holding throughout (format): cell-based, human
Assay [1] deals with U2OS SSA reporter cells. In words: Single strand annealing (SSA) GFP reporter assay. The conditions noted are these: 24-h treatment. The source says:
The DR-green fluorescent protein, pCAGGS and pCBASce plasmids were kindly provided by Dr Maria Jasin (Memorial Sloan-Kettering Cancer Center, New York, NY, USA). U2OS cells containing a single copy of the HR repair reporter substrate DR-green fluorescent protein were generated as previously described.[48] Single stand annealing reporter cells were kindly provided by Dr Jeremy Stark (Beckman Research Institute of the City of Hope, Duarte, CA, USA).[49] Details in Supplementary Materials and Methods.
Figure S6. NSC-105808 reduces DSB repair by SSA. Cells were transfected with EGFP or I-SceI plasmids for 24 hrs and then cultured for an additional 48 hr before analysis by flow cytometry (top). Treatment with NSC-105808 was for 24 hrs prior to flow cytometry. Bar graph showing SSA efficiency in cells treated with NSC-105808 as compared to control cells treated with DMSO. The average data from three independent experiments are shown, with the error bars representing standard deviation (n=3, bottom).
The GFP expressing plasmid (pEGFP-C1) was used for transfection efficiency control. Cells were transfected with the pCBASce plasmid. […] Efficiency of HR and SSA was calculated by normalizing I-SceI-induced GFP expression with EGFP transfection-induced GFP expression. […]
For orientation: Reporter assays use an easily measured gene product as a stand-in for the process of interest.

Assay [2] relates to DNA2 protein level. Description: Western blot of cellular DNA2 protein level. The note with it: U2OS, PANC-1, Hs578T; up to 12 hrs. As for the experimental part: Figure S8. Analysis of DNA2 protein levels in cells treated with NSC-105808. U2OS (a), PANC-1 (b) and Hs578T (c) cells were treated with the indicated concentrations of NSC-105808 for 4 hours (right) or with a single concentration of NSC-105808 (0.3 µM for U2OS and Hs578T cells; 0.6 µM for PANC-1 cells) for 0, 4, 8, or 12 hrs (left). The results were quantified and are shown below each panel, with the error bars representing the mean ± SD of three independent experiments.
For orientation: Immunoblotting shows a protein as a band on a membrane.

Assay [3] concerns Hs578T and BT549 versus MCF10A cells. In words: MTT proliferation, breast cell lines. The note with it: 48-h treatment. As to the method: (§1) Figure 5 Oncogene induction enhances sensitivity of cancer cells to NSC-105808. (a-e) Graphs showing proliferation of indicated cell lines in response to a 48-h treatment with the indicated concentrations of NSC-105808. Proliferation relative to cells treated with vehicle alone was determined by the 3-(4,5-dimethylthiazol-2-yl)-2,5-diphenyltetrazolium bromide (MTT) assay. Each value represents the mean±s.e.m. from three independent experiments. (a) Proliferation of control pancreatic epithelial cells DT-PD59 and transformed pancreatic cancer cells AsPC-1 and PANC-1. (b) Proliferation of normal breast epithelial cells MCF10A and breast cancer cells Hs578T and BT549. (c) Proliferation of MCF10A cells with or without H-Ras expression. H-Ras was induced with doxycycline (2 μg/ml). […]
(§2) Cell proliferation was measured by 3-(4,5-dimethylthiazol-2-yl)-2,5-diphenyltetrazolium bromide (Sigma) reduction (Supplementary Materials and Methods).
(§3) To determine the cell proliferation rate, 1000 cells/well were seeded in a 96-well plate in a total volume of 100 µl in triplicate in each experiment. […] Plates were read at 490 nm and 650 nm (background) in a
(§4) microplate reader (Molecular Devices). After the subtraction of background, cell viability was calculated as fold change relative to control cells.

Assay [4] has as its system MCF10A cells with inducible H-Ras expression. In words: MTT proliferation, MCF10A with inducible H-Ras. The conditions noted are these: 48-h treatment, doxycycline induction. As for the experimental part: as §1, §2, §3, §4
Assay [5] has as its system AsPC-1, PANC-1 versus DT-PD59 cells. Description: MTT proliferation, pancreatic cell lines. The conditions noted are these: 48-h treatment. As for the experimental part:
as §1, §2, §3, §4

For assay [6], the system named is DT-PD77 cells with E6/E7 oncoprotein versus DT-PD59. Description: MTT proliferation, DT-PD59 versus E6/E7 DT-PD77. The note with it: 48-h treatment. As to the method: as §1, §2, §3, §4
In assay [7] the test system is U2OS cells containing DR-GFP reporter. Description: DR-GFP gene conversion (HR) reporter assay. The note with it: 24-h treatment. As to the method:
Figure 4 NSC-105808 inhibits HR repair and DSB end resection. (a) Analysis of HR efficiency with the DR-green fluorescent protein (GFP) assay. Representative images of flow cytometry analysis and bar graph showing percentage of GFP cells from at least three independent experiments. Each value represents the mean±s.d. (b, c) Analysis of RPA phosphorylation in U2OS cells treated with NSC-105808 (2 h, 0.3 μM) and/or camptothecin (CPT; 2 h, 1 μM). (b) Representative images of cells subjected to immunofluorescent staining of p-RPA and bar graph showing percentage of cells with positive p-RPA staining from three independent experiments. Each value represents the mean±s.d. (c) Western blot analysis of chromatin fraction with the indicated antibodies. (d) Analysis of colony formation by FANCD2 (+/+) and FANCD2 (−/−) cells treated with cisplatin and/or NSC-105808. Each value is relative to the untreated control group of each cell line. The graph represents the mean±s.e.m. from three independent experiments. *P<0.01.
The DR-green fluorescent protein, pCAGGS and pCBASce plasmids were kindly provided by Dr Maria Jasin (Memorial Sloan-Kettering Cancer Center, New York, NY, USA). […]
The GFP expressing plasmid (pEGFP-C1) was used for transfection efficiency control. […] Efficiency of HR and SSA was calculated by normalizing I-SceI-induced GFP expression with EGFP transfection-induced GFP expression. […]

Entries after “also recorded” stand apart in the source; their conditions may differ.

The record followed here is publication PMC5520492, “Inhibition of DNA2 nuclease as a therapeutic strategy targeting replication stress in cancer cells” (Oncogenesis, 2017).

On to `NC1=C(Br)C(=O)c2ncccc2C1=O` [NSC-105808, 6-amino-7-bromoquinoline-5,8-dione], for which the “DSB repair by single stand annealing” value in assay [1] is “significantly reduced”. Also, the “Impact on cellular level of DNA2 protein” value in assay [2] is recorded as “No statistically significant difference; also recorded: no impact”. Also, in assay [3], the “Sensitivity of transformed breast cancer cells compared with MCF10A” value was “more sensitive”. The “Sensitivity upon activation of H-Ras” value in assay [4] is “increased sensitivity”. Further, the “Sensitivity of transformed pancreatic cancer cell lines compared with non-transformed DT-PD59” value in assay [5] is recorded as “more sensitive”. For the same molecule, the “Sensitivity in cells with E6/E7 oncoprotein-induced replication stress” value in assay [6] is given as “higher”. Further, in assay [7], the “DSB repair by gene conversion” value is on record as “significantly reduced”.
